Data reported in patent US8318781B2, “G-protein-conjugated receptor agonist” (Japan Science and Technology Agency, priority 2007, dated 2012).

Target: T1, human GPR120 (hGPR120) (Homo sapiens, UniProt Q5NUL3)
T1 construct: expressed in transfected cells; doxycycline-inducible expression vector
T1 sequence (Q5NUL3 1-361): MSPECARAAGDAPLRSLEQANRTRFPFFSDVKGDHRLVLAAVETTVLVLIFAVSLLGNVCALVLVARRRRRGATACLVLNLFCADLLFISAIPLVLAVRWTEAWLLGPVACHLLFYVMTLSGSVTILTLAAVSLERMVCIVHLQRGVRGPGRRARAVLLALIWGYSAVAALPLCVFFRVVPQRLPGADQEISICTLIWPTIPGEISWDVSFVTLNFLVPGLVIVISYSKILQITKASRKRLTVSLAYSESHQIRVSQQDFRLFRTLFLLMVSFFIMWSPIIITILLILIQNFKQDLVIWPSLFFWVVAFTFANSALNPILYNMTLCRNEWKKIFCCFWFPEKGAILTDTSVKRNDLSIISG
Assay: Determination of intracellular Ca2+ concentration (FLIPR), cell line TXGPR120
Type: cell-based
Conditions: for selectivity between GPR40 and GPR120 (in words), from Tables 3 and 4: GPR40 versus GPR120, Ca2+ and ERK results; for EC50 / [Ca^2+]/GPR120 10 μM (ratio vs. LA): TXGPR120 cells; for EC50: maximum fluorescence intensity vs ligand concentration, read-out: [Ca^2+]/GPR120 pEC50 (converted); for agonistic activity for hGPR120 (in words): cells in which GPR120 has been transgenically expressed; for [Ca^2+]/GPR120 10 μM (ratio vs. LA): relative fluorescence intensity vs LA at 10 μM

EC50 [µM]	agonistic activity for hGPR120 (in words)	[Ca^2+]/GPR120 10 μM (ratio vs. LA)	SMILES	selectivity between GPR40 and GPR120 (in words), from Tables 3 and 4
5.25	exhibit a similar effect	1.60	O=C(O)CCCc1ccc(OCCN(c2ccccc2)c2nccs2)cc1 [NCG46]	acting relatively mildly for GPR40 but acting strongly for GPR120
15.8	exhibit a similar effect	0.66	CN(C)c1ccc(N(CCOc2ccc(CCCC(=O)O)cc2)c2ccccn2)cc1 [NCG54]	acting relatively mildly for GPR40 but acting strongly for GPR120
